Assay results: patent US9249180B2, “C-3 alkyl and alkenyl modified betulinic acid derivatives” (priority 2013, dated 2016)

The compounds below were run on recombinant NL4-3 virus (Renilla luciferase in nef, Gag P373S; NLRluc) in MT-2 cells (assay: HIV Cell Culture Assay (luciferase reporter, antiviral activity)). Settings: Renilla, NL43, MT-2 cells infected for 4-5 days with NLRluc recombinants, serial dilutions of the inhibitor.
Assay type: cell-based
Protocol: HIV Cell Culture Assay—MT-2 cells and 293T cells were obtained from the NIH AIDS Research and Reference Reagent Program. MT-2 cells were propagated in RPMI 1640 media supplemented with 10% heat inactivated fetal bovine serum, […]. The 293T cells were propagated in DMEM media supplemented with 10% heat inactivated fetal bovine serum (FBS), 100 units/ml penicillin G and 100 μg/ml streptomycin. The proviral DNA clone of NL4-3 was obtained from the NIH AIDS Research and Reference Reagent Program. A recombinant NL4-3 virus, in which a section of the nef gene from NL4-3 was replaced with the Renilla luciferase gene, was used as a reference virus. In addition, residue Gag P373 was converted to P373S. Briefly, the recombinant virus was prepared by transfection of the altered proviral clone of NL4-3. Transfections were performed in 293T cells using LipofectAMINE PLUS from Invitrogen (Carlsbad, Calif.), according to manufacturer's instruction. The virus was titered in MT-2 cells using luciferase enzyme activity as a marker. Luciferase was quantitated using the Dual Luciferase kit from Promega (Madison, Wis.), with modifications to the manufacturer's protocol. The diluted Passive Lysis solution was pre-mixed with the re-suspended Luciferase Assay Reagent and the re-suspended Stop & Glo Substrate (2:1:1 ratio). Fifty (50) μL of the mixture was added to each aspirated well on assay plates and luciferase activity was measured immediately on a Wallac TriLux (Perkin-Elmer). Antiviral activities of inhibitors toward the recombinant virus were quantified by measuring luciferase activity in cells infected for 4-5 days with NLRluc recombinants in the presence serial dilutions of the inhibitor.

SMILES	EC50
C=C(C)[C@@H]1CC[C@]2(NCCN3CCS(=O)(=O)CC3)CC[C@]3(C)[C@H](CC[C@@H]4[C@@]5(C)CC=C(CCC(C)(C)CC(=O)NC#N)C(C)(C)[C@@H]5CC[C@]43C)[C@@H]12 [Example 14, N-cyano-5-((1R,3aS,5aR,5bR,7aR,11aS,11bR,13aR,13bR)-3a-((2-(1,1-dioxidothiomorpholino)ethyl)amino)-5a,5b,8,8,11a-pentamethyl-1-(prop-1-en-2-yl)-2,3,3a,4,5,5a,5b,6,7,7a,8,11,11a,11b,12,13,13a,13b-octadecahydro-1H-cyclopenta[a]chrysen-9-yl)-3,3-dimethylpentanamide]	4.7 nM
C=C(C)[C@@H]1CC[C@]2(NCCN3CCS(=O)(=O)CC3)CC[C@]3(C)[C@H](CC[C@@H]4[C@@]5(C)CC=C(CCC(C)(C)CC(=O)NS(C)(=O)=O)C(C)(C)[C@@H]5CC[C@]43C)[C@@H]12 [Example 15, 5-((1R,3aS,5aR,5bR,7aR,11aS,11bR,13aR,13bR)-3a-((2-(1,1-dioxidothiomorpholino)ethyl)amino)-5a,5b,8,8,11a-pentamethyl-1-(prop-1-en-2-yl)-2,3,3a,4,5,5a,5b,6,7,7a,8,11,11a,11b,12,13,13a,13b-octadecahydro-1H-cyclopenta[a]chrysen-9-yl)-3,3-dimethyl-N-(methylsulfonyl)pentanamide]	1.6 nM
CC(C)[C@@H]1CC[C@]2(NCCN3CCS(=O)(=O)CC3)CC[C@]3(C)[C@H](CC[C@@H]4[C@@]5(C)CCC(CCCCC(=O)O)C(C)(C)[C@@H]5CC[C@]43C)[C@@H]12 (stereo partly drawn) [Example 16, 5-((1S,3aS,5aR,5bR,7aS,11aS,11bR,13aR,13bR)-3a-((2-(1,1-dioxidothiomorpholino)ethyl)amino)-1-isopropyl-5a,5b,8,8,11a-pentamethylicosahydro-1H-cyclopenta[a]chrysen-9-yl)pentanoic acid]	1 nM
CC(C)[C@@H]1CC[C@]2(NCCN3CCS(=O)(=O)CC3)CC[C@]3(C)[C@H](CC[C@@H]4[C@@]5(C)CCC(CCCC(C)(C)C(=O)O)C(C)(C)[C@@H]5CC[C@]43C)[C@@H]12 (stereo partly drawn) [Example 17, 5-((1S,3aS,5aR,5bR,7aS,11aS,11bR,13aR,13bR)-3a-((2-(1,1-dioxidothiomorpholino)ethyl)amino)-1-isopropyl-5a,5b,8,8,11a-pentamethylicosahydro-1H-cyclopenta[a]chrysen-9-yl)-2,2-dimethylpentanoic acid]	7.3 nM
C=C(C)[C@@H]1CC[C@]2(NCCN3CCC(S(C)(=O)=O)CC3)CC[C@]3(C)[C@H](CC[C@@H]4[C@@]5(C)CC=C(CCC(C)(C)CC(=O)O)C(C)(C)[C@@H]5CC[C@]43C)[C@@H]12 [Example 18, 3,3-dimethyl-5-((1R,3aS,5aR,5bR,7aR,11aS,11bR,13aR,13bR)-5a,5b,8,8,11a-pentamethyl-3a-((2-(4-(methylsulfonyl)piperidin-1-yl)ethyl)amino)-1-(prop-1-en-2-yl)-2,3,3a,4,5,5a,5b,6,7,7a,8,11,11a,11b,12,13,13a,13b-octadecahydro-1H-cyclopenta[a]chrysen-9-yl)pentanoic acid]	1.1 nM
C=C(C)[C@@H]1CC[C@]2(C(=O)O)CC[C@]3(C)[C@H](CC[C@@H]4[C@@]5(C)CC=C(CCC(=O)O)C(C)(C)[C@@H]5CC[C@]43C)[C@@H]12 [Example 19, (1R,3aS,5aR,5bR,7aR,11aS,13aR,13bR)-9-(2-carboxyethyl)-5a,5b,8,8,11a-pentamethyl-1-(prop-1-en-2-yl)-2,3,3a,4,5,5a,5b,6,7,7a,8,11,11a,11b,12,13,13a,13b-octadecahydro-1H-cyclopenta[a]chrysene-3a-carboxylic acid]	470 nM
